Test results taken from US20080139573A1, “Treatment of resistant Schizophrenia and other CNS disorders” (Copharm, priority 2006, published 2008).
Entries after “also recorded” stand apart in the source; their conditions may differ.

Assays:
Type in all cases: in vivo, human
[1] = system: therapy refractory schizophrenic patient; experiment: Case report: therapy refractory schizophrenia, switched to oral zuclopenthixol
Text: Subject two diagnosed with therapy refractory schizophrenia for the first time The patient had been treated with appropriate doses and for sufficient duration with oral aripiprazole, oral loxapine and oral olanzapine at appropriate doses and for sufficient duration. Compliance with treatment was ascertained. […] The patient was then switched to oral zuclopenthixol.

[2] = system: therapy resistant bipolar disorder patient; experiment: Case reports: therapy resistant bipolar disorder, prescribed oral zuclopenthixol; settings: for response to previous treatments: appropriate doses, sufficient duration, compliance ascertained
Text: Resistant bipolar disorder patient is defined as a patient not responding to an appropriate pharmacological treatment.
Case 1. Subject diagnosed with therapy resistant bipolar disorder I presented as having manic state. They had been diagnosed for the first time. […] Compliance with treatment was ascertained. They were then prescribed oral zuclopenthixol. Before initiating oral zuclopenthixol treatment, the patient was considered as “among the most extremely ill patients”. After 8 weeks of treatment with zuclopenthixol, the patient was evaluated as having “much improved”.
Case 2. Subject diagnosed with therapy resistant bipolar disorder 11 presented with depressive symptoms. They had been diagnosed for the first time. […] Compliance with treatment was ascertained. They were then prescribed oral zuclopenthixol. Before initiating oral zuclopenthixol treatment, the patient was considered as “markedly ill”.

[3] = system: recurrent depression patient; experiment: Case report: recurrent depression, switched to oral zuclopenthixol; settings: for outcome under previous antidepressants: appropriate doses, sufficient duration, compliance ascertained
Text: Recurrent depressive patient is defined as a patient experiencing two or more successive major depressive episodes that are separated by at least two months of not experiencing adequate symptoms of depression to qualify for major depressive disorder (DSM-IV).
Subject diagnosed with recurrent depression for the first time. […] Compliance with treatment was ascertained. […] After 2 years, the patient had still not relapsed.

[4] = system: therapy resistant schizophrenic patient; experiment: Case reports: therapy resistant schizophrenic patients switched to oral zuclopenthixol; settings: for response to previous antipsychotic agents: Case 1, oral, successive, appropriate doses and sufficient duration, compliance controlled
Text: Therapy resistant schizophrenic patient is a schizophrenic patient who has tried two successive antipsychotic agents for a period of 6 weeks at an appropriate dosage with no significant symptomatic relief of symptoms and who was compliant to pharmacological treatment. This definition comprises determining relief of symptoms by measurement on a clinical scale such as PANSS (positive and negative […] scale). The relief should correspond to a reduction of the PANSS scale of at least 20% after a period of 6 weeks treatment of an appropriate dosage. Lack of relief of symptoms should be assessed prospectively and should not be documented on the basis of historical information. Compliance to treatment should be documented through a third party such as nurse or care giver. Lack of compliance is often a reason for unsatisfactory outcome of schizophrenia therapy; if compliance is not documented the diagnosis of therapy resistant schizophrenia cannot be ascertained. Appropriate dosage is defined as an equivalent chlorpromazine of 400-700 mg per day.
Case 1. […] Compliance to treatment was ascertained. Before being given zuclopenthixol, the patient presented severe debilitating schizophrenic symptoms.
Case 2. Subject diagnosed with therapy resistant schizophrenia for the first time. […] Compliance with treatment was ascertained. The patient was then switched to oral zuclopenthixol. Before initiating zuclopenthixol treatment, the patient was considered as “markedly ill”.
Case 3. Subject diagnosed with therapy resistant schizophrenia for the first time. […] Compliance with treatment was ascertained. The patient was then switched to oral zuclopenthixol. Before initiating zuclopenthixol treatment, the patient was considered as “among the most extremely ill patients”. After 8 weeks of treatment with zuclopenthixol, the patient was evaluated as having “much improved”, as confirmed by C.G.I. and P.A.N.S.S.
Case 4. Subject diagnosed with therapy resistant schizophrenia for the first time. The patient had been treated with appropriate doses and for sufficient duration with the following antipsychotics: oral risperidone, oral aripiprazole, oral loxapine, and oral olanzapine. Compliance with treatment was ascertained. The patient was then switched to oral zuclopenthixol. Before initiating zuclopenthixol treatment, the patient was considered as “severely ill”. After 8 weeks of treatment with zuclopenthixol, the patient was evaluated as having “much improved”, as confirmed by C.G.I. and P.A.N.S.S.
Case 5. Subject diagnosed with therapy resistant schizophrenia for the first time. […] The patient was then switched to oral zuclopenthixol. […] After 8 weeks of treatment with zuclopenthixol, the patient was evaluated as having “much improved”, as confirmed by C.G.I. and P.A.N.S.S.

[5] = system: therapy resistant depression patient; experiment: Case report: therapy resistant depression, switched to oral zuclopenthixol; settings: for response to previous antidepressants: appropriate doses, sufficient duration
Text: Resistant depression patient is defined as a patient not responding to an appropriate pharmacological treatment.
Subject one diagnosed with chronic depression for the first time. […] They were then switched to oral zuclopenthixol. Before initiating oral zuclopenthixol treatment, the patient was considered as “markedly ill”.

[6] = system: naïve schizophrenic patient; experiment: Case report: naïve schizophrenic patient given zuclopenthixol as first antipsychotic; settings: 50 mg p. o. per day
Text: Naïve schizophrenic patient is a schizophrenic patient who had never been treated with an antipsychotic agent.
After a period of 5 years of treatment, the patient had still not relapsed.

[7] = person one, after 8 weeks of treatment
[8] = person two, after 8 weeks of treatment

## O=C1CCc2ccc(OCCCCN3CCN(c4cccc(Cl)c4Cl)CC3)cc2N1 [aripiprazole]
[1]; appropriate doses, sufficient duration, significant troublesome residual symptoms remained
  response to previous antipsychotics: significant relief of symptoms

## Nc1nnc(-c2cccc(Cl)c2Cl)c(N)n1 [lamotrigine]
[2]
  response to previous treatments: without satisfactory response

## CNCCC(Oc1ccc(C(F)(F)F)cc1)c1ccccc1 (stereo not shown) [fluoxetine]
[3]
  outcome under previous antidepressants: regularly experiencing new episodes of depression

## Cc1nc2n(c(=O)c1CCN1CCC(c3noc4cc(F)ccc34)CC1)CCCC2 [risperidone]
[4]
  response to previous antipsychotic agents: did not respond

## CN[C@H]1CC[C@@H](c2ccc(Cl)c(Cl)c2)c2ccccc21 [sertraline]
[5]
  response to previous antidepressants: without satisfactory response
[2]
  response to previous treatments: without satisfactory response

## Cl.Cl.OCCN1CCN(CC/C=C2/c3ccccc3Sc3ccc(Cl)cc32)CC1 [zuclopenthixol, 4-[(3Z)-3-(2-chloro-9H-thioxanthen-9-ylidene)propyl]-1-piperazineethanol dihydrochloride]
[5]; [7]
  evaluation of improvement, confirmed by C.G.I.: much improved
  reduction of depression on the Hamilton Depression Scale: marked response
[2]; after 8 weeks of treatment, Case 1 bipolar I manic state, Case 2 depressive symptoms, dihydrochloride
  evaluation of improvement: much improved; also recorded: very much improved
[6]
  outcome of first antipsychotic treatment: successful
  period of treatment without relapse: ≥ 5 years
[4]; Case 1, patient, exclusively oral zuclopenthixol, soon after start of treatment
  effect on schizophrenic symptoms: major relief of schizophrenic symptoms
[4]; Cases 2-5, oral, after 8 weeks of treatment, dihydrochloride
  evaluation of improvement, confirmed by C.G.I. and P.A.N.S.S.: very much improved; also recorded: much improved
[3]; person
  period without relapse: ≥ 2 years
  response to treatment: marked response
[1]; [8]
  evaluation of improvement, confirmed by C.G.I. and P.A.N.S.S.: much improved
  remission: achieve remission

## Fc1ccc([C@@H]2CCNC[C@H]2COc2ccc3c(c2)OCO3)cc1 [paroxetine]
[5]
  response to previous antidepressants: without satisfactory response
[3]
  outcome under previous antidepressants: regularly experiencing new episodes of depression

## O=C(CCCN1CCC(O)(c2ccc(Cl)cc2)CC1)c1ccc(F)cc1 [haloperidol]
[4]
  response to previous antipsychotic agents: did not respond

## CN(C)CCC=C1c2ccccc2CCc2ccccc21 [amytriptiline]
[5]
  response to previous antidepressants: without satisfactory response
[3]
  outcome under previous antidepressants: regularly experiencing new episodes of depression
